Test results: patent US9409905B2, “Antibacterial compounds and methods for use” (PTC THERAPEUTICS, INC., priority 2011, dated 2016)
Values after ≈ are worked out from the molar mass of the structure shown.

Assays:
[1] = test system: Escherichia coli (E. coli) BAS849; test: Antibacterial activity, microbroth dilution MIC (Table 1); type: cell-based; details: microbroth dilution, super sensitive Gram-negative E. coli BAS849, read-out: MIC, BAS849
Outline: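 Microbroth dilution was used. MIC, in μg/mL, is the lowest drug concentration preventing macroscopically visible growth under the test conditions.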

[2] = test system: Staphylococcus aureus (S. aureus) 29213; test: as above; type: cell-based; details: microbroth dilution, Gram-positive S. aureus 29213, read-out: MIC, 29213
Outline: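 Broth microdilution against S. aureus 29213, E. coli 25922 and hypersensitive E. coli BAS849. MIC in μg/mL is the lowest drug concentration preventing macroscopically visible growth under test conditions.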

[3] = test system: E. coli 25922; test: as above; type: cell-based, Escherichia coli; details: Escherichia coli; microbroth dilution; control Gram-negative E. coli 25922 strain; read-out: MIC, 25922
Outline: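 Potency is reported as minimum inhibitory concentration in μg/mL, determined by broth microdilution as the lowest level of compound that stops growth visible to the eye.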

[4] = test system: E. coli LZ3111; test: Antibacterial activity, MIC, quinolone resistant strain (Table 2); type: cell-based; details: Escherichia coli, LZ3111, read-out: MIC LZ3111
Outline: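 MIC values (μg/mL) came from a microbroth dilution assay, scored as the lowest drug concentration at which no growth was visible by eye.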

[5] = test system: E. coli ELZ4000; test: Antibacterial activity, MIC, multi-drug resistant clinical isolate (Table 3); type: cell-based; details: Escherichia coli, ELZ4000, read-out: MIC ELZ4000
Source text: (§1) The antibacterial activity from a microbroth dilution method may be presented as the minimum inhibitory concentration (MIC in μg/mL). The MIC value is the lowest concentration of drug which prevents macroscopically visible growth under test conditions.
(§2) Antibacterial activity of test compounds against E. coli ELZ4000 and E. coli ELZ4251 multi-drug resistant clinical isolates is shown in Table 3.

[6] = test system: E. coli ELZ4251; test: as above; type: cell-based; details: Escherichia coli
Source text: as §1, §2

[7] = test system: Acinetobacter baumannii (A. baumannii) BAA747; test: Antibacterial activity, MIC (Table 4); type: cell-based; details: A. baumannii BAA747, read-out: MIC, BAA747
Outline: (§3)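 Activity was measured by microbroth dilution. The MIC, in μg/mL, is the lowest drug concentration that prevents macroscopically visible growth under the test conditions. The resistant strains are multi-drug resistant clinical isolates.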

[8] = test system: Pseudomonas aeruginosa (P. aeruginosa) 27853; test: Antibacterial activity, MIC (Table 5); type: cell-based; details: P. aeruginosa 27853, read-out: MIC, 27853
Outline: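 Values are MICs in μg/mL, read as the lowest concentration at which no growth is visible by eye. They were determined by a microbroth dilution method.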

[9] = test system: A. baumannii MXX2240; test: Antibacterial activity, MIC, resistant strain (Table 4); type: cell-based; details: Acinetobacter baumannii, MXX2240; resistant A. baumannii MMX2240, multi-drug resistant clinical isolate; read-out: MIC, MMX2240
Outline: as §3

[10] = test system: K. pneumoniae MXX1232; test: as above; type: cell-based; details: Klebsiella pneumoniae, MXX1232; resistant K. pneumoniae MMX1232, multi-drug resistant clinical isolate; read-out: MIC, MMX1232
Outline: as §3

[11] = test system: Klebsiella pneumoniae (K. pneumoniae) 35657; test: Antibacterial activity, MIC (Table 4); type: cell-based; details: K. pneumoniae 35657, read-out: MIC, 35657
Outline: as §3

| SMILES | MIC [1] | MIC [2] | MIC [3] | MIC [4] | MIC [5] | MIC [6] | MIC [7] | MIC [8] | MIC [9] | MIC [10] | MIC [11] |
| --- | --- | --- | --- | --- | --- | --- | --- | --- | --- | --- | --- |
| Cn1c(CN2CCC2)cc2cc(-c3[nH]c(=O)c(C(=O)O)c(O)c3C3CC3)ccc21 [Cpd 324, 6-(2-(azetidin-1-ylmethyl)-1-methyl-1H-indol-5-yl)-5-cyclopropyl-4-hydroxy-2-oxo-1,2-dihydropyridine-3-carboxylic acid] | 1 to 3.5 µg/mL (≈ 2.54 to 8.9 µM) | 12.5 to 150 µg/mL (≈ 31.8 to 381 µM) | 12.5 to 150 µg/mL (≈ 31.8 to 381 µM) | 3.5 to 12.5 µg/mL (≈ 8.9 to 31.8 µM) | 3.5 to 12.5 µg/mL (≈ 8.9 to 31.8 µM) | 3.5 to 12.5 µg/mL (≈ 8.9 to 31.8 µM) | 12.5 to 150 µg/mL (≈ 31.8 to 381 µM) | 12.5 to 150 µg/mL (≈ 31.8 to 381 µM) | – | – | – |
| CCc1c(-c2ccc3c(c2)cc(CN2CCC(OC)C2)n3C)[nH]c(=O)c(C(=O)O)c1O (stereo not shown) [Cpd 179, 5-ethyl-4-hydroxy-6-(2-((3-methoxypyrrolidin-1-yl)methyl)-1-methyl-1H-indol-5-yl)-2-oxo-1,2-dihydropyridine-3-carboxylic acid] | < 1 µg/mL | 3.5 to 12.5 µg/mL (≈ 8.23 to 29.4 µM) | 1 to 3.5 µg/mL (≈ 2.35 to 8.23 µM) | 3.5 to 12.5 µg/mL (≈ 8.23 to 29.4 µM) | 12.5 to 150 µg/mL (≈ 29.4 to 353 µM) | 3.5 to 12.5 µg/mL (≈ 8.23 to 29.4 µM) | 1 to 3.5 µg/mL (≈ 2.35 to 8.23 µM) | 12.5 to 150 µg/mL (≈ 29.4 to 353 µM) | 3.5 to 12.5 µg/mL (≈ 8.23 to 29.4 µM) | 12.5 to 150 µg/mL (≈ 29.4 to 353 µM) | – |
| CCc1c(-c2ccc3c(c2)cc(CN2CC(F)C2)n3C)[nH]c(=O)c(C(=O)O)c1O [Cpd 194, 5-ethyl-6-(2-((3-fluoroazetidin-1-yl)methyl)-1-methyl-1H-indol-5-yl)-4-hydroxy-2-oxo-1,2-dihydropyridine-3-carboxylic acid] | < 1 µg/mL | 3.5 to 12.5 µg/mL (≈ 8.76 to 31.3 µM) | 1 to 3.5 µg/mL (≈ 2.5 to 8.76 µM) | 3.5 to 12.5 µg/mL (≈ 8.76 to 31.3 µM) | 12.5 to 150 µg/mL (≈ 31.3 to 376 µM) | 12.5 to 150 µg/mL (≈ 31.3 to 376 µM) | 1 to 3.5 µg/mL (≈ 2.5 to 8.76 µM) | 12.5 to 150 µg/mL (≈ 31.3 to 376 µM) | 3.5 to 12.5 µg/mL (≈ 8.76 to 31.3 µM) | 12.5 to 150 µg/mL (≈ 31.3 to 376 µM) | – |
| CCc1c(-c2ccc3c(ccn3CCO)c2)[nH]c(=O)c(C(=O)O)c1O [Cpd 24, 5-ethyl-4-hydroxy-6-(1-(2-hydroxyethyl)-1H-indol-5-yl)-2-oxo-1,2-dihydropyridine-3-carboxylic acid] | < 1 µg/mL | 3.5 to 12.5 µg/mL (≈ 10.2 to 36.5 µM) | 3.5 to 12.5 µg/mL (≈ 10.2 to 36.5 µM) | 12.5 to 150 µg/mL (≈ 36.5 to 438 µM) | 12.5 to 150 µg/mL (≈ 36.5 to 438 µM) | 12.5 to 150 µg/mL (≈ 36.5 to 438 µM) | 3.5 to 12.5 µg/mL (≈ 10.2 to 36.5 µM) | – | 12.5 to 150 µg/mL (≈ 36.5 to 438 µM) | 12.5 to 150 µg/mL (≈ 36.5 to 438 µM) | – |
| CCc1c(-c2ccc3c(c2)cc(CN2CC[C@@H](F)C2)n3C)[nH]c(=O)c(C(=O)O)c1O [Cpd 177, (R)-5-ethyl-6-(2-((3-fluoropyrrolidin-1-yl)methyl)-1-methyl-1H-indol-5-yl)-4-hydroxy-2-oxo-1,2-dihydropyridine-3-carboxylic acid] | < 1 µg/mL | 3.5 to 12.5 µg/mL (≈ 8.47 to 30.2 µM) | 1 to 3.5 µg/mL (≈ 2.42 to 8.47 µM) | 3.5 to 12.5 µg/mL (≈ 8.47 to 30.2 µM) | 12.5 to 150 µg/mL (≈ 30.2 to 363 µM) | 3.5 to 12.5 µg/mL (≈ 8.47 to 30.2 µM) | – | 12.5 to 150 µg/mL (≈ 30.2 to 363 µM) | – | 12.5 to 150 µg/mL (≈ 30.2 to 363 µM) | 1 to 3.5 µg/mL (≈ 2.42 to 8.47 µM) |
| CCc1c(-c2ccc3c(c2)cc(CNC(CF)CF)n3C)[nH]c(=O)c(C(=O)O)c1O [Cpd 274, 6-(2-((1,3-difluoropropan-2-ylamino)methyl)-1-methyl-1H-indol-5-yl)-5-ethyl-4-hydroxy-2-oxo-1,2-dihydropyridine-3-carboxylic acid] | < 1 µg/mL | 3.5 to 12.5 µg/mL (≈ 8.34 to 29.8 µM) | 1 to 3.5 µg/mL (≈ 2.38 to 8.34 µM) | 3.5 to 12.5 µg/mL (≈ 8.34 to 29.8 µM) | 12.5 to 150 µg/mL (≈ 29.8 to 358 µM) | 3.5 to 12.5 µg/mL (≈ 8.34 to 29.8 µM) | 3.5 to 12.5 µg/mL (≈ 8.34 to 29.8 µM) | 12.5 to 150 µg/mL (≈ 29.8 to 358 µM) | 3.5 to 12.5 µg/mL (≈ 8.34 to 29.8 µM) | 12.5 to 150 µg/mL (≈ 29.8 to 358 µM) | – |
| Cn1c(CNCC2CC2)cc2cc(-c3[nH]c(=O)c(C(=O)O)c(O)c3C3CC3)ccc21 [Cpd 325, 5-cyclopropyl-6-(2-((cyclopropylmethylamino)methyl)-1-methyl-1H-indol-5-yl)-4-hydroxy-2-oxo-1,2-dihydropyridine-3-carboxylic acid] | 3.5 to 12.5 µg/mL (≈ 8.59 to 30.7 µM) | 12.5 to 150 µg/mL (≈ 30.7 to 368 µM) | 12.5 to 150 µg/mL (≈ 30.7 to 368 µM) | 3.5 to 12.5 µg/mL (≈ 8.59 to 30.7 µM) | 3.5 to 12.5 µg/mL (≈ 8.59 to 30.7 µM) | 1 to 3.5 µg/mL (≈ 2.45 to 8.59 µM) | 12.5 to 150 µg/mL (≈ 30.7 to 368 µM) | 12.5 to 150 µg/mL (≈ 30.7 to 368 µM) | – | – | – |
